Assay results as given in the RepoRT retention time repository.

Experiment: HILIC, Waters ACQUITY UPLC BEH Amide, 100 × 2.1 mm, 1.7 µm; A: water + 0.125% formic acid + 10 mM ammonium formate; B: 5% water + 95% acetonitrile + 0.125% formic acid + 10 mM ammonium formate; gradient (min/%B) 0/100 2/100 7.7/70 9.5/40 10.25/30 12.75/100 17/100
Details: stereoisomer not certain

| Structure (SMILES) | LC retention time |
| --- | --- |
| Cc1nc2n(c(=O)c1CCN1CCC(c3noc4cc(F)ccc34)CC1)CCCC2 [Risperidone] | 3.52 min |
| CC(C)c1nc(CN(C)C(=O)NC(C(=O)NC(Cc2ccccc2)CC(O)C(Cc2ccccc2)NC(=O)OCc2cncs2)C(C)C)cs1 (configuration not stated) [Ritonavir] | 1.15 min |
| COc1ccc(C2CNC(=O)C2)cc1OC1CCCC1 (configuration not stated) [Rolipram] | 1.12 min |
| CCCN1CCCCC1C(=O)Nc1c(C)cccc1C (configuration not stated) [Ropivacaine] | 2.49 min |
| CC(=O)OCC(=O)NCCCOc1cccc(CN2CCCCC2)c1 [Roxane] | 3.01 min |
| CC1OC(OCC2OC(Oc3c(-c4ccc(O)c(O)c4)oc4cc(O)cc(O)c4c3=O)C(O)C(O)C2O)C(O)C(O)C1O (configuration not stated) [Rutin] | 6.6 min |
| Nc1ncnc2c1ncn2C1OC(CSCCC(N)C(=O)O)C(O)C1O (configuration not stated) [S-Adenosyl-homocysteine] | 8.85 min |
| C[S+](CCC(N)C(=O)[O-])CC1OC(n2cnc3c(N)ncnc32)C(O)C1O (configuration not stated) [S-Adenosyl-methionine] | 9.7 min |
| OCc1ccccc1OC1OC(CO)C(O)C(O)C1O (configuration not stated) [Salicin] | 4.48 min |
| CN1C2CC(OC(=O)C(CO)c3ccccc3)CC1C1OC12 (configuration not stated) [Scopolamine] | 3.75 min |
| Cc1ncc([N+](=O)[O-])n1CC(C)O (configuration not stated) [Secnidazole] | 1.12 min |
| C#CCN(C)C(C)Cc1ccccc1 (configuration not stated) [Selegiline] | 1.5 min |
| NC(CO)C(=O)O (configuration not stated) [Serine] | 8.73 min |
| NCCc1c[nH]c2ccc(O)cc12 [Serotonin] | 1.44 min |
| CNC1CCC(c2ccc(Cl)c(Cl)c2)c2ccccc21 (configuration not stated) [Sertraline] | 2.74 min |
| CC(C)CC(N(C)C)C1(c2ccc(Cl)cc2)CCC1 (configuration not stated) [Sibutramine] | 1.86 min |
| CC(C)NCC(O)c1ccc(NS(C)(=O)=O)cc1 (configuration not stated) [Sotalol] | 4.87 min |
| NCCCCNCCCN [Spermidine] | 6.98 min |
| NCCCNCCCCNCCCN [Spermine] | 7.24 min |
| CC12Cc3cn[nH]c3CC1CCC1C2CCC2(C)C1CCC2(C)O (configuration not stated) [Stanozolol] | 1.19 min |
| Cc1cn(C2C=CC(CO)O2)c(=O)[nH]c1=O (configuration not stated) [Stavudine] | 1.62 min |

Results, then the compound that gave them:

| LC retention time | Structure (SMILES) |
| --- | --- |
| 5.11 min | CN(C)CCc1c[nH]c2ccc(Cn3cncn3)cc12 [Rizatriptan] |
| 0.97 min | CS(=O)(=O)c1ccc(C2=C(c3ccccc3)C(=O)OC2)cc1 [Rofecoxib] |
| 1.24 min | CN(CCOc1ccc(CC2SC(=O)NC2=O)cc1)c1ccccn1 (configuration not stated) [Rosigltazone] |
| 4.65 min | CN1CCN(c2c(F)cc3c(=O)c(C(=O)O)cn4c3c2SCC4)CC1 [Rufloxacin] |
| 8.49 min | CN=C(NC)NCCCC(N)C(=O)O (configuration not stated) [SDMA] |
| 4.75 min | OCc1cc(C(O)CNCCCCCCOCCCCc2ccccc2)ccc1O (configuration not stated) [Salmeterol] |
| 2.85 min | CC(C)(C)NC(=O)C1CC2CCCCC2CN1CC(O)C(Cc1ccccc1)NC(=O)C(CC(N)=O)NC(=O)c1ccc2ccccc2n1 (configuration not stated) [Saquinavir] |
| 7.82 min | CNCC(=O)O [Sarcosine] |
| 1.16 min | COc1cc2ccc(=O)oc2cc1O [Scopoletin] |
| 1.41 min | COc1cc(C=CC(=O)O)cc(OC)c1O [Sinapic acid] |
| 9.75 min | O=P(O)(O)OCC(O)C(O)C(O)C(O)CO (configuration not stated) [Sorbitol-6-phosphate] |
| 7.1 min | C[N+]1(C)CCCC1C(=O)[O-] (configuration not stated) [Stachydrine] |
| 2.96 min | CCCCCCCCCCCCCCCCCC(=O)OC(CC(=O)[O-])C[N+](C)(C)C [Stearoyl-L-carnitine] |
| 8.74 min | C=Cc1ccccc1 [Styrene] |
| 4.46 min | O=C(O)CCC(=O)O [Succinic acid] |
| 8.05 min | OCC1OC(OC2(CO)OC(CO)C(O)C2O)C(O)C(O)C1O (configuration not stated) [Sucrose] |
